Measurements taken from patent publication US9403832B2, “Pyrazolo[1,5-a]pyrimidine-based compounds, compositions comprising them, and methods of their use” (Lexicon Pharmaceuticals, Inc., priority 2012, dated 2016).

Assays:
AAK1 [1] = biological target: T1, AAK1 (Homo sapiens, UniProt Q2M2I8); assay: HEK281 cell-based assay (CBA); conditions: HEK293F cells transfected with full length human AAK1 and AP2M1; phospho-mu2 Western blot; 3 hours incubation
T1 construct: NP_055726.2
In short: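 HEK293F cells co-transfected with full-length human AAK1/HA and Flag-AP2M1 (mu2), then treated in suspension with compounds (5 concentrations, 3-fold steps) in DMEM+0.5% FBS for 3 hours at 37° C. Phospho-mu2 and total mu2 (anti-Flag) assessed by Western blot.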

AAK1 [2] = biological target: T1, AAK1; assay: P81 filter plate assay; format: biochemical; conditions: full-length human AAK1, Mu2 substrate, 33P-ATP
In short: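 Full-length human AAK1 (0.2 nM, 2×) was pre-incubated 10 min at RT with compounds (top concentration 96 μM in the dilution plate), then reacted 1 h at RT with full-length human Mu2 (0.2 μM, 2×), cold ATP (2 μM, 2×) and ³³P-ATP. Reactions were stopped with phosphoric acid and captured on P81 filters for scintillation counting.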

T1 sequence (Q2M2I8 1-863 isoform Q2M2I8-2): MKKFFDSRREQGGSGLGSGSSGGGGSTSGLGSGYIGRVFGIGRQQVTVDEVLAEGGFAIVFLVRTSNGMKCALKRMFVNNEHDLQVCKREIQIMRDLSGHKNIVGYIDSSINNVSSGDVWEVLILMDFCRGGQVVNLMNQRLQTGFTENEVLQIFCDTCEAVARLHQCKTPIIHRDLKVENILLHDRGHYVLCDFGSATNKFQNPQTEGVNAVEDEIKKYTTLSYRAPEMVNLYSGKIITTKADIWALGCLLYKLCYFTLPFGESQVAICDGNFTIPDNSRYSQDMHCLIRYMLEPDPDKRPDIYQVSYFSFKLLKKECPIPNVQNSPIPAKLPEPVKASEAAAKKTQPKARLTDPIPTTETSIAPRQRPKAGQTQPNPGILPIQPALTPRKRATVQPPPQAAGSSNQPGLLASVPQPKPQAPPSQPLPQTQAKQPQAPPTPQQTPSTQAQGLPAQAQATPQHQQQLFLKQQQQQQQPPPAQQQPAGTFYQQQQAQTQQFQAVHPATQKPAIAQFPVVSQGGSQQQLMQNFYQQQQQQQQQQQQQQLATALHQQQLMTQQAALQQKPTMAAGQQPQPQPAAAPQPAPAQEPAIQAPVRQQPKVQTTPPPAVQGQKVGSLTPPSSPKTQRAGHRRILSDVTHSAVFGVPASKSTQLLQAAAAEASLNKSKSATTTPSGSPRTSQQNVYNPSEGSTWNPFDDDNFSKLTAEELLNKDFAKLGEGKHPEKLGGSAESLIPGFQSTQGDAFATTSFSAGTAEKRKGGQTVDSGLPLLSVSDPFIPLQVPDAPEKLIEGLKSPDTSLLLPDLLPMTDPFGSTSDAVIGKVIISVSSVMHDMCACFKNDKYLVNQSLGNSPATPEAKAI

Structure (SMILES)	IC50 (AAK1 [1]) [nM]	IC50 (AAK1 [2]) [nM]
CCOc1ncccc1-c1cnn2ccc(N3CCN(C(=O)OC(C)(C)C)CC3)nc12 [tert-butyl 4-(3-(2-ethoxypyridin-3-yl)pyrazolo[1,5-a]pyrimidin-5-yl)piperazine-1-carboxylate]	≤ 10	≤ 10
Cc1ccc(-c2cnn3ccc(N4CCN(C(=O)[C@@H](N)C(C)C)CC4)nc23)c(F)c1 [(S)-2-amino-1-(4-(3-(2-fluoro-4-methylphenyl)pyrazolo[1,5-a]pyrimidin-5-yl)piperazin-1-yl)-3-methylbutan-1-one]	≤ 100	≤ 10
COc1ncccc1-c1cnn2ccc(N3CCN(C(=O)[C@@H]4CCCN4)CC3)nc12 [(S)-(4-(3-(2-methoxypyridin-3-yl)pyrazolo[1,5-a]pyrimidin-5-yl)piperazin-1-yl)(pyrrolidin-2-yl)methanone]	≤ 100	≤ 10
CCOC(=O)N1CCN(c2ccn3ncc(-c4ccc(C)nc4OC)c3n2)CC1 [ethyl 4-(3-(2-methoxy-6-methylpyridin-3-yl)pyrazolo[1,5-a]pyrimidin-5-yl)piperazine-1-carboxylate]	≤ 100	≤ 10
COc1nc(C)ccc1-c1cnn2ccc(N3CCN(C(=O)O[C@@H]4CCOC4)CC3)nc12 [(R)-tetrahydrofuran-3-yl 4-(3-(2-methoxy-6-methylpyridin-3-yl)pyrazolo[1,5-a]pyrimidin-5-yl)piperazine-1-carboxylate]	≤ 100	≤ 10
COc1cccc(-c2cnn3ccc(N4CCN(C(=O)OC(C)C)CC4)nc23)n1 [isopropyl 4-(3-(6-methoxypyridin-2-yl)pyrazolo[1,5-a]pyrimidin-5-yl)piperazine-1-carboxylate]	≤ 100	≤ 10
COc1ncccc1-c1cnn2ccc(N(C)CCCN(C)C(=O)OC(C)C)nc12 [isopropyl (3-((3-(2-methoxypyridin-3-yl)pyrazolo[1,5-a]pyrimidin-5-yl)(methyl)amino)propyl)(methyl)carbamate]	≤ 100	≤ 10
COc1ccc(F)cc1-c1cnn2ccc(N3CCN(C(=O)O[C@@H]4CCOC4)CC3)nc12 [(R)-tetrahydrofuran-3-yl 4-(3-(5-fluoro-2-methoxyphenyl)pyrazolo[1,5-a]pyrimidin-5-yl)piperazine-1-carboxylate]	≤ 10	≤ 10
COC[C@H](N)C(=O)N1CCN(c2ccn3ncc(-c4cccnc4OC)c3n2)CC1 [(S)-2-amino-3-methoxy-1-(4-(3-(2-methoxypyridin-3-yl)pyrazolo[1,5-a]pyrimidin-5-yl)piperazin-1-yl)propan-1-one]	≤ 10	≤ 10
CCOC(=O)N1CCN(c2ccn3ncc(-c4cc(F)cnc4OC)c3n2)CC1 [ethyl 4-(3-(5-fluoro-2-methoxypyridin-3-yl)pyrazolo[1,5-a]pyrimidin-5-yl)piperazine-1-carboxylate]	≤ 100	≤ 10
CCOC(=O)N1CCN(c2ccn3ncc(-c4cc(C)cnc4OC)c3n2)CC1 [ethyl 4-(3-(2-methoxy-5-methylpyridin-3-yl)pyrazolo[1,5-a]pyrimidin-5-yl)piperazine-1-carboxylate]	≤ 100	≤ 10
COc1ccc(F)cc1-c1cnn2ccc(N3CCN(C(=O)OC(C)C)CC3)nc12 [isopropyl 4-(3-(5-fluoro-2-methoxyphenyl)pyrazolo[1,5-a]pyrimidin-5-yl)piperazine-1-carboxylate]	≤ 10	≤ 10
COCCOC(=O)N1CCN(c2ccn3ncc(-c4cc(F)cnc4OC)c3n2)CC1 [2-methoxyethyl 4-(3-(5-fluoro-2-methoxypyridin-3-yl)pyrazolo[1,5-a]pyrimidin-5-yl)piperazine-1-carboxylate]	≤ 100	≤ 10
CC(C)[C@H](N)C(=O)N1CCN(c2ccn3ncc(-c4cccc(F)c4)c3n2)CC1 [(S)-2-amino-1-(4-(3-(3-fluorophenyl)pyrazolo[1,5-a]pyrimidin-5-yl)piperazin-1-yl)-3-methylbutan-1-one]	≤ 10	≤ 10
